These results are taken from the pKa sets of Baltruschat and Czodrowski (2020).

Values joined by “and” are separate entries in the source; they are usually repeats but may differ in a detail not shown here. Equal entries are not always repeated.

For orientation: pKa means the negative logarithm of the acid dissociation constant. Consider `NCCCCl`, for which the pKa (basic group) amounted to 9.89.

The compound `c1ccc2cnncc2c1` had a pKa (basic group) of 3.47. The compound `Cc1csc(-c2cccc(NS(=O)(=O)c3ccc(N)cc3)c2)n1` had a pKa (acidic group) of 9.2. The same measure, in the same setting: in the case of `Cc1nn(-c2ccccc2)c(O)c1C1CCCCC1` it was 11.6. Same read-out and setting: the result for `Cc1ccc(NS(=O)(=O)c2ccccc2)cc1` reads 8.63. For `NCc1ccccc1S(N)(=O)=O`, the pKa is, setting by setting: (acidic group) 10.1; (basic group) 8.53.

With `Nc1nccc(-c2csc(N)n2)n1`, the pKa (basic group) was 4. Compound `C/C(=N/O)c1ccc([O-])cc1O` registered a pKa (acidic group) of 9.72. In turn, `COc1ccc(Nc2ccccc2)cc1` gave a pKa (basic group) of 1.38. On to `O=C1C(=O)C(c2ccccc2)C1=O`, for which the pKa (acidic group) came to 0.37. Consider `c1cc(N2CCOCC2)ccn1`, for which, for the setting “basic group”, the pKa worked out at 8.79. With `CN(C)c1ccc([N+](C)(C)C)cc1`, the pKa (basic group) stood at 2.64.

Consider `CN1CC[C@]23c4c5ccc(O[C@@H]6O[C@H](C(=O)[O-])[C@@H](O)[C@H](O)[C@H]6O)c4O[C@H]2[C@@H](O)C=C[C@H]3[C@H]1C5`, for which the pKa (basic group) was 8.1. The compound `C[C@@H]1CC[C@H](C)[C@H]1C(=O)O` had a pKa (acidic group) of 4.69. On the same count and under the same terms, in the case of `CCCCCOc1ccc(O)cc1` it was 10.2. Under “basic group”, `CC(C)NNC1CCN(C)CC1` came in with a pKa of 9.07.

In turn, `Oc1cc2ccccc2n[nH+]1` yielded a pKa (acidic group) of 0.21. On the same count and under the same terms, the result for `Cc1cnc(NS(=O)(=O)c2ccc(N)cc2)nc1C` reads 6.

The compound `O=[N+]([O-])c1ccc(B(O)O)cc1` showed a pKa (acidic group) of 7.15. Turning to `CC(=O)c1ccccn1`, the pKa (basic group) was -0.46. Compound `NCCC(=O)[O-]` returned a pKa (basic group) of 10.2. Take `Cc1ccc(NCCNc2ccc(C)cc2)cc1`: the pKa (basic group) was 4.

`CCOC(=O)CN` came in with a pKa (basic group) of 7.74. For `CC(C)=CCC1C(=O)C(CC=C(C)C)(CC=C(C)C)C(O)(C(=O)O)C1=O` (stereo not given), the pKa (acidic group) came out at 3.9.

`Cc1cc(OS(=O)(=O)[O-])c2oc(-c3cc4ccc(O)cc4oc3=O)nc2c1` came in with a pKa (acidic group) of 6.8. As to `Cn1cnc2ncn(C)c2c1=O`, where the note is “basic group”, the pKa was 2.16. `c1nnn[nH]1` returned a pKa (acidic group) of 4.84. Still for that read-out and setting: in the case of `O=C(C[N+](=O)[O-])c1ccccc1` it was 5.19; in that of `CC(=O)[n+]1cccc(C#N)c1`, 1.62. The compound `c1ccc(NCCN2CCCCC2)cc1` showed a pKa (basic group) of 9.2. On the same count and under the same terms, the result for `Cc1[nH]c2ccc(N)cc2[nH+]1` reads 3.12. As to `O=C([O-])C1(C(=O)O)CCCC1`, the pKa (acidic group) was 6.08. Under “basic group”, `Cn1ccc(=O)cc1` had a pKa of 3.33. The same measure, in the same setting: in the case of `Nc1ccc2cnccc2c1` it was 7.17. The compound `CC/C(N=O)=N/O` came in with a pKa (acidic group) of 5.8. With `CNc1nccn2cc(-c3ccc(S(C)=O)cc3OC)nc12` (stereo not given), where the note is “basic group”, the pKa was found to be 5.36. For `CC[NH+](CC)CCC(C)Nc1c2ccc(Cl)cc2nc2ccc(OC)cc12` (stereo not given), the pKa (basic group) turned out to be 7.2. For the setting “acidic group”, `Cc1cnc(C(=O)O)s1` showed a pKa of 3.03.

For the compound `C(CN1CCOCC1)C[NH+]1CCOCC1`, the pKa (basic group) was 6.25. Still for that read-out and setting: in the case of `Nc1ccncc1` it was 9.16. In turn, `Cc1n[nH]c(C(=O)O)c1[N+](=O)[O-]` yielded a pKa (acidic group) of 2.26. Where the note is “basic group”, `c1ccc(N(CC2CO2)CC2CO2)cc1` (stereo not given) had a pKa of -0.4.

Take `Cc1ncnc2c(O)cccc12`: the pKa (acidic group) is 8.75 and the pKa (basic group) is 2.9. As for `Nc1cccc2ccncc12`, where the note is “basic group”, the pKa was 6.06.

Regarding `O=S(=O)(Cc1ccccc1)c1cnn[nH]1`, for the setting “acidic group”, the pKa was 5.15. For the setting “basic group”, `NCCc1ccc([O-])cc1` registered a pKa of 10.4. Still for that read-out and setting: the result for `CCC(O)CN(CC(O)CC)C(C)(C)C` (stereo not given) reads 9.6. The compound `C[NH+](C)Cc1ccc(O)cc1` showed a pKa (acidic group) of 8.83.

`[O-]c1cc([O-])cc(O)c1` showed a pKa (acidic group) of 14.1. Consider `O=C(O)c1ncccn1`, for which the pKa is, setting by setting: (acidic group) 2.85; (basic group) -1.13. Regarding `CCCCCCCCc1c(-c2ccccc2)n[nH]c1O`, the pKa (acidic group) worked out at 10.2.

In the case of `CC(C)C(O[C@H]1O[C@@H](C(=O)O)[C@H](O)[C@@H](O)[C@@H]1O)C(C)C`, where the note is “acidic group”, the pKa was 3.89.

With `Cn1c([O-])nc2nc[nH]c2c1=O`, the pKa (acidic group) was found to be 11.9. The same measure, in the same setting: in the case of `O=[N+]([O-])c1ccc(NS(=O)(=O)c2ccccc2)cc1` it was 6.63; in that of `NC(=O)c1ccccc1C(=O)O`, 3.75. On to `Nc1ccc2nccnc2c1`, for which the pKa (basic group) is 2.95. In turn, `O=C([O-])[C@@H]1O[C@H](Oc2ccc3[nH+]c(O)ccc3c2)[C@@H](O)[C@H](O)[C@H]1O` had a pKa (acidic group) of 3.75.

Consider `c1cc(N2CCCC2)c2c(N3CCCC3)cccc2c1`, for which, where the note is “basic group”, the pKa amounted to 9.97. Compound `CC([NH3+])C(=O)O` (stereo not given) had a pKa (acidic group) of 2.36. Regarding `COc1ccc(OC)c2c1nc(CCl)n2C`, the pKa (basic group) was 4.1. On the same count and under the same terms, the result for `C[C@H](N)[C@H](C)[NH3+]` reads 6.79. Regarding `O=C1/C(=C2\C=CC=CN2)C(=O)c2cc([N+](=O)[O-])ccc21`, the pKa (acidic group) turned out to be 9.26.

`O=[N+]([O-])c1ccc2[nH]c(-c3ccccc3)nc2c1` yielded a pKa (basic group) of 2.95. The same measure, in the same setting: the result for `C=C1CC1C[C@H](N)C(=O)[O-]` (stereo not given in full) reads 9.37.

In the case of `[NH3+]C(c1ncc[nH]1)c1ncc[nH]1`, the pKa (basic group) was 4.07. The compound `O=C([O-])C[NH+](CC(=O)[O-])Cc1ccccc1O` registered a pKa (acidic group) of 8.17. On the same count and under the same terms, in the case of `CC[NH+]1CCC[C@@H]1CNC(=O)c1c(O)c(Br)cc(Br)c1OC` it was 5.88.

In turn, `CN(C)CC(C)(C)C` came in with a pKa (basic group) of 9.75. For the compound `CNCC(=O)NCCc1c[nH]cn1`, the pKa (basic group) was determined as 8.31.

Take `CCCN(CCO)CC(O)CC` (stereo not given): where the note is “basic group”, the pKa is 9. As for `OC1(c2ccco2)CN2CCC1CC2` (stereo not given), the pKa (basic group) was found to be 9.06. The compound `Cc1cc(N)ccc1C[NH3+]` came in with a pKa (basic group) of 4.26.

Under “acidic group”, `CC(C)[NH2+]CC(=O)O` showed a pKa of 2.35. `Nc1cncnc1N`: the pKa by setting is: (acidic group) 9.33; (basic group) 6.03.

Take `CC(C)CCN`: the pKa (basic group) amounted to 10.9. Compound `N=C(Nc1ccccc1)Nc1nc(N)nc(N)n1` registered a pKa (basic group) of 8.2.

`Nc1cccc2ccc3ncccc3c12` gave a pKa (basic group) of 5.03. Consider `CSc1ccc(O)cc1`, for which the pKa (acidic group) worked out at 9.5.

On to `CCCN(CCC)CC(=O)NC1c2ccccc2-c2ccccc21`, for which, for the setting “basic group”, the pKa came to 7.28. In turn, `C#CC(C)(C)N(C)C(C)(C)C#C` gave a pKa (basic group) of 6.65. In the case of `OC[C@H]1O[C@@H]2NC(=S)O[C@@H]2[C@H]1O`, under “acidic group”, the pKa worked out at 9.48. Consider `CNCC(C)c1ccccc1` (stereo not given), for which the pKa (basic group) was 9.87. In turn, `CCCSC(C)C(=O)O` (stereo not given) registered a pKa (acidic group) of 3.82.

The compound `CCOC(=O)c1cnc2cc([N+](=O)[O-])ccc2c1[O-]` yielded a pKa (basic group) of 9.32.

As to `Cn1ncc2c(=O)[nH]cnc21`, the pKa (acidic group) worked out at 9.26. `CC(c1ccccc1)[N+](=O)[O-]` (stereo not given) returned a pKa (acidic group) of 7.39.

Turning to `C/C(=N\O)C(=O)[O-]`, where the note is “acidic group”, the pKa is 11.4. For the setting “basic group”, `CC(=O)c1ccccc1N` showed a pKa of 2.31.

Take `O=C(O)[C@@H]1CSC[NH2+]1`: for the setting “acidic group”, the pKa came to 1.58.

The compound `CN1C[C@@H](C(=O)[O-])C[C@@]2(O)c3cccc4[nH]cc(c34)C[C@@H]12` returned a pKa (basic group) of 9.2. Still for that read-out and setting: the result for `COc1cc(S(C)=O)ccc1-c1nc2ncccc2[nH]1` (stereo not given) reads 3.91 and 3.89.

On to `CNO`, for which the pKa (basic group) is 6.05. On the same count and under the same terms, the result for `Nc1ncnc([S-])c1N` reads 9.34; that for `NNC(=O)c1cccc([NH3+])c1`, 2.57.

Where the note is “basic group”, `CC(C)S(=O)(=O)n1c(N)nc2ccc(/C(=C/C(N)=O)c3cc(F)ccc3F)cc21` had a pKa of 3.4. In turn, `O=C(O)[C@@H]1O[C@H](Oc2c[nH+]c3ccccc3c2)[C@@H](O)[C@H](O)[C@H]1O` registered a pKa (acidic group) of 3. Consider `O=C1CN(C(=O)c2ccccc2)C(=S)N1`, for which the pKa was 6.5 (acidic group) and -6.6 (basic group).

`Cc1cc([S-])nc([S-])n1` came in with a pKa (basic group) of 12. Under “acidic group”, `Sc1nc2[nH]cnc2c[nH+]1` had a pKa of 0.5.

`CC(C)CCC1C(=O)C(O)C(CCC(C)C)(CCC(C)C)C1=O` (stereo not given): the pKa (acidic group) is 6.3.

For the setting “acidic group”, `CC(Br)[N+](=O)[O-]` (stereo not given) had a pKa of 7.17. In turn, `CNc1c2ccccc2nc2cccc([N+](=O)[O-])c12` had a pKa (basic group) of 7.2. Still for that read-out and setting: in the case of `C=CCc1c(O)n[nH]c1C` it was 2.8. `N#CC(C#N)=C(C#N)C(C#N)C#N` had a pKa (acidic group) of 1.9. `CCC(C)(C)N` yielded a pKa (basic group) of 10.9. Still for that read-out and setting: the result for `N[C@H]1CCCC[C@@H]1N` reads 9.75. In turn, `CCCc1c(O)n2c3cc(C)ccc3nc(N(C)C)n2c1=O` had a pKa (acidic group) of 6.55. Under “basic group”, `CN(C)CCCN=C(c1ccccc1)c1ccccc1` showed a pKa of 9.4. Consider `Nc1ccc(S(=O)(=O)Nc2cccc[nH+]2)cc1`, for which, under “basic group”, the pKa stood at 1. For `CC(=O)OCC(=N/O)/C(C)=N/O`, the pKa (acidic group) is 9.7. Still for that read-out and setting: the result for `Cn1cnc(C(=O)[O-])c1C(=O)O` reads 3.9.

`Nc1ccc(B(O)O)cc1`: the pKa (acidic group) was determined as 9.17 and the pKa (basic group) was 3.71. For `CCC(C(=O)O)C(=O)N1CCCCC1` (stereo not given), for the setting “acidic group”, the pKa turned out to be 3.86. Same read-out and setting: in the case of `O/N=C\c1ccco1` it was 10.8. `Cc1cncc(C)[nH+]1`: the pKa (basic group) was -4.48. On the same count and under the same terms, in the case of `CCCCCCCCN(CC(O)CC)CC(O)CC` (stereo not given) it was 7.5; in that of `CCOCCNc1ccccc1`, 4.04. The compound `COc1ccc(NC(=S)c2ccc(OC)cc2)cc1` yielded a pKa (acidic group) of 11.8.

For the compound `CC1(C)SC(=O)NC1=O`, the pKa (acidic group) was found to be 6.64. Regarding `CCN(CC)CCCNc1ccnc2ccccc12`, the pKa (basic group) amounted to 10. The compound `Cc1cc(Nc2ccc(O)cc2)c(C(C)C)cc1O` registered a pKa (acidic group) of 9.85. For the compound `O=C(N/N=C/c1ccccc1O)c1ccncc1`, the pKa reads like this: (acidic group) 8.31; (basic group) 3.33.

`CCCC(C(CC)CO)C(CC)C(=O)O` (stereo not given) registered a pKa (acidic group) of 4.78. Take `CCCCCCCCCCCCCCCCCCCCCCN`: where the note is “basic group”, the pKa was determined as 10.6.

Under “basic group”, `NCCCBr` returned a pKa of 8.93. The same measure, in the same setting: in the case of `COc1ccc(C(O)CNC(C)CC2=C(C)C(C)(C)CC2)cc1` (stereo not given) it was 8.79.

Under “acidic group”, `Cc1cccc(C(=O)O)[nH+]1` registered a pKa of 0.9. `CCN(CC)c1ccccc1C`: under “basic group”, the pKa was 7.18.

The compound `[O-]c1ccccc1/C=N/O` returned a pKa (acidic group) of 12.1. As to `CC(C)N(C(C)C)C(C)C`, the pKa (basic group) turned out to be 11.9. On the same count and under the same terms, the result for `Cn1ccnc1` reads 7.15. Still for that read-out and setting: the result for `Cc1cccc(C)c1NC(=O)CNCC(C)C` reads 7.83; that for `COc1c2ccccc2nc2ccccc12`, 7.
